The target in this assay is T1, HCV polymerase (Hepatitis C virus genotype 1b, UniProt P26663).
T1 construct: 2.5 pmoles (0.15 μg) HCV polymerase protein in a final volume of 75 μL
In words: HCV polymerase primer/template-directed transcription assay (32P-GTP incorporation, filter binding). It counts as biochemical. The note with it: for IC50: recombinant HCV polymerase, 30 minutes at 30° C., concentration giving 50% inhibition of polymerase-directed transcription, read-out: IC50. In outline:
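Recombinant genotype 1b polymerase (30 nM) extended biotin-dG12 primer on poly(rC)300 template with 1 μM GTP plus α-32P-GTP, pH 7.2, 10 mM MgCl2, 30 min at 30° C, 1% DMSO final. Products captured on DE filters and counted. IC50 fitted from triplicate cpm, with a tight-binding correction applied below 200 nM.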

As usually defined, the IC50 is the concentration that inhibits the measured activity by half. What is called inhibition is the share of the control response that was lost under treatment.

T1 sequence (P26663 2420-3010): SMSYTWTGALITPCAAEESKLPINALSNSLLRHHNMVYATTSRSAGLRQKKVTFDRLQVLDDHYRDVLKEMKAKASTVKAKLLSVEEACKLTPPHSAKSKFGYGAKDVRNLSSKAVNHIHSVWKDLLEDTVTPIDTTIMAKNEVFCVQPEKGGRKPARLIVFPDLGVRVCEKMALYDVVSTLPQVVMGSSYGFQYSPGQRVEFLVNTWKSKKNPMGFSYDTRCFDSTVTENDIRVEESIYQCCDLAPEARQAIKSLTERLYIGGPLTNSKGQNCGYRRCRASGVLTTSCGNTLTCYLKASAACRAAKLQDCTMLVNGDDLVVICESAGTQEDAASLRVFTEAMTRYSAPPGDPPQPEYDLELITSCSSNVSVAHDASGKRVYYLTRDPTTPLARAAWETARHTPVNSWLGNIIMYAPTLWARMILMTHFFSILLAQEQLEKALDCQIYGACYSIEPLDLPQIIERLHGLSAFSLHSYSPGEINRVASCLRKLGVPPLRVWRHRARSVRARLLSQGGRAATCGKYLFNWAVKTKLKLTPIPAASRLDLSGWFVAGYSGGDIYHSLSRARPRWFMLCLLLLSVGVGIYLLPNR

Regarding `Cc1cc(C)n2nc(CC3=C(O)CC(CCc4ccc(C(C)C)c(Cl)c4)(C4CCCC4)OC3=O)nc2n1` (centres unmarked) [B(44), 6-[2-(3-chloro-4-isopropylphenyl)ethyl]-6-cyclopentyl-3-[(5,7-dimethyl[1,2,4]triazolo[1,5-a]pyrimidin-2-yl)methyl]-4-hydroxy-5,6-dihydro-2H-pyran-2-one], the half-maximal inhibitory concentration (IC50) was 53 nM.

Regarding `CC(C)Oc1ccc(CCC2(C3CCCC3)CC(O)=C(Cc3nc4ccccc4n3C)C(=O)O2)cc1Cl` (centres unmarked) [B(27), 6-[2-(3-Chloro-4-isopropoxy-phenyl)-ethyl]-6-cyclopentyl-4-hydroxy-3-(1-methyl-1H-benzoimidazol-2-ylmethyl)-5,6-dihydro-pyran-2-one], the inhibition at 20 µM (@ 20 uM compound, given where IC50 was impractical to calculate, read-out: percent inhibition) was 47%.

As to `O=C1CC(=O)OC(CCc2ccc(O)c(CC(F)(F)F)c2)(C2CCCC2)C1` (centres unmarked) [A(228), 6-cyclopentyl-6-{2-[4-hydroxy-3-(2,2,2-trifluoroethyl)phenyl]ethyl}dihydro-2H-pyran-2,4(3H)-dione], the 50% inhibitory concentration (IC50) came out at 470 nM.

For the compound `CCc1cc(CCC2(C3CCCC3)CC(O)=C(Cc3nc4nc(C)cc(C)n4n3)C(=O)O2)ccc1OC` (centres unmarked) [B(96), 6-Cyclopentyl-3-(5,7-dimethyl-[1,2,4]triazolo[1,5-a]pyrimidin-2-ylmethyl)-6-[2-(3-ethyl-4-methoxy-phenyl)-ethyl]-4-hydroxy-5,6-dihydro-pyran-2-one], the half-inhibitory concentration (IC50) worked out at 5 nM.

As for `CCc1cc(CCC2(C3CCCC3)CC(O)=C(Cc3nc4nc(C)cc(C)n4n3)C(=O)O2)ccc1O` (centres unmarked) [B(07), 6-Cyclopentyl-3-(5,7-dimethyl-[1,2,4]triazolo[1,5-a]pyrimidin-2-ylmethyl)-6-[2-(3-ethyl-4-hydroxy-phenyl)-ethyl]-4-hydroxy-5,6-dihydro-pyran-2-one], the IC50 is 1 nM.

Regarding `Cc1cc(C)n2nc(CC3=C(O)CC(CCc4ccc(CCO)c(F)c4)(C4CCCC4)OC3=O)nc2n1` (centres unmarked) [A(119), 6-Cyclopentyl-3-(5,7-dimethyl-[1,2,4]triazolo[1,5-a]pyrimidin-2-ylmethyl)-6-{2-[3-fluoro-4-(2-hydroxy-ethyl)-phenyl]-ethyl}-4-hydroxy-5,6-dihydro-pyran-2-one], the 50% inhibitory concentration (IC50) was 1200 nM.

With `COc1cc(OC)c(CCC2(C3CCCC3)CC(O)=C(Cc3nc(C)cc(=O)[nH]3)C(=O)O2)cc1Cl` (centres unmarked) [B(68), 2-({6-[2-(5-Chloro-2,4-dimethoxyphenyl)ethyl]-6-cyclopentyl-4-hydroxy-2-oxo-5,6-dihydro-2H-pyran-3-yl}methyl)-6-methylpyrimidin-4(3H)-one], the concentration for half-maximal inhibition (IC50) worked out at 100 nM.

Take `O=C1CC(=O)OC(CCC#Cc2ccc(F)cc2)(C2CCCC2)C1` (centres unmarked) [F(5), 6-Cyclopentyl-6-[4-(4-fluoro-phenyl)-but-3-ynyl]-dihydro-pyran-2,4-dione]: the half-inhibitory concentration (IC50) came out at 25000 nM.

Turning to `COc1cc(OC)c(CCC2(C3CCCC3)CC(O)=C(Cc3nn(C)cc3Cl)C(=O)O2)cc1Cl` (centres unmarked) [B(32), 6-[2-(5-Chloro-2,4-dimethoxy-phenyl)-ethyl]-3-(4-chloro-1-methyl-1H-pyrazol-3-ylmethyl)-6-cyclopentyl-4-hydroxy-5,6-dihydro-pyran-2-one], the 50% inhibitory concentration (IC50) is 70 nM.

Regarding `COc1ccc(CCC2(C3CCCC3)CC(O)=C(C(=O)Cc3cc(C)no3)C(=O)O2)c(OC)c1` (centres unmarked) [B(86), 6-Cyclopentyl-6-[2-(2,4-dimethoxy-phenyl)-ethyl]-4-hydroxy-3-[2-(3-methyl-isoxazol-5-yl)-acetyl]-5,6-dihydro-pyran-2-one], the concentration for half-maximal inhibition (IC50) turned out to be 22100 nM.

`Cn1cc(Cl)c(CC2=C(O)CC(CCc3ccc(C(C)(C)C#N)c(F)c3)(C3CCCC3)OC2=O)n1` (centres unmarked) [A(102), 2-[4-(2-{5-[(4-chloro-1-methyl-1H-pyrazol-3-yl)methyl]-2-cyclopentyl-4-hydroxy-6-oxo-3,6-dihydro-2H-pyran-2-yl}ethyl)-2-fluorophenyl]-2-methylpropanenitrile]: the concentration for half-maximal inhibition (IC50) came out at 5 nM.

Regarding `CC(C)(C#N)c1ccc(CCC2(C3CCCC3)CC(O)=C(Cc3cc[nH]c(=O)c3)C(=O)O2)cc1F` (centres unmarked) [A(99), 2-[4-(2-{2-cyclopentyl-4-hydroxy-6-oxo-5-[(2-oxo-1,2-dihydropyridin-4-yl)methyl]-3,6-dihydro-2H-pyran-2-yl}ethyl)-2-fluorophenyl]-2-methylpropanenitrile], the IC50 worked out at 17 nM.

In the case of `Cc1cc(C)n2nc(CC3=C(O)CC(CCc4ccc(C(C)(C)O)c(F)c4)(C4CCCC4)OC3=O)nc2n1` (single isomer, unassigned; enantiomer b) [A(219), 6-cyclopentyl-3-[(5,7-dimethyl[1,2,4]triazolo[1,5-a]pyrimidin-2-yl)methyl]-6-{2-[3-fluoro-4-(1-hydroxy-1-methylethyl)phenyl]ethyl}-4-hydroxy-5,6-dihydro-2H-pyran-2-one (enantiomer B)], the 50% inhibitory concentration (IC50) turned out to be 88 nM.

Turning to `N#Cc1cccc(-c2ccc(CCC3(C4CCCC4)CC(=O)CC(=O)O3)cc2)c1` (centres unmarked) [A(45), 4′-[2-(2-Cyclopentyl-4,6-dioxo-tetrahydro-pyran-2-yl)-ethyl]-biphenyl-3-carbonitrile], the IC50 came to 30000 nM.

As for `CCc1cc(CCC2(C3CCCC3)CC(O)=C(Cc3nc4nc(C)cc(C)n4n3)C(=O)O2)ccn1` (centres unmarked) [A(162), 6-Cyclopentyl-3-(5,7-dimethyl-[1,2,4]triazolo[1,5-a]pyrimidin-2-ylmethyl)-6-[2-(2-ethyl-pyridin-4-yl)-ethyl]-4-hydroxy-5,6-dihydro-pyran-2-one], the IC50 amounted to 10 nM.

Turning to `O=C1CC(=O)OC(CCN2CCCC2=O)(C2CCCC2)C1` (centres unmarked) [A(14), 6-Cyclopentyl-6-[2-(2-oxo-pyrrolidin-1-yl)-ethyl]-dihydro-pyran-2,4-dione], the inhibition at 50 µM (@ 50 uM compound, given where IC50 was impractical to calculate, read-out: percent inhibition) was 35%.

For `CCc1cc(CCC2(C3CCCC3)CC(O)=C(Cc3nc4ncc(C)cn4n3)C(=O)O2)ccc1O` (centres unmarked) [A(126), 6-Cyclopentyl-6-[2-(3-ethyl-4-hydroxy-phenyl)-ethyl]-4-hydroxy-3-(6-methyl-[1,2,4]triazolo[1,5-a]pyrimidin-2-ylmethyl)-5,6-dihydro-pyran-2-one], the IC50 is 9 nM.

For the compound `COc1ccc(CCC2(C3CCCC3)CC(O)=C(Sc3cccc4cccnc34)C(=O)O2)cc1Cl` (centres unmarked) [C(03), 6-[2-(3-Chloro-4-methoxy-phenyl)-ethyl]-6-cyclopentyl-4-hydroxy-3-(quinolin-8-ylsulfanyl)-5,6-dihydro-pyran-2-one], the IC50 stood at 500 nM.

Consider `COc1ccc(CCC2(C3CCCC3)CC(O)=C(Cc3nc4nc(C)cc(C)n4n3)C(=O)O2)c(F)c1` (centres unmarked) [B(103), 6-Cyclopentyl-3-(5,7-dimethyl-[1,2,4]triazolo[1,5-a]pyrimidin-2-ylmethyl)-6-[2-(2-fluoro-4-methoxy-phenyl)-ethyl]-4-hydroxy-5,6-dihydro-pyran-2-one], for which the IC50 is 107 nM.

In the case of `CCc1cc(CCC2(C3CCCC3)CC(=O)CC(=O)O2)c2c(c1O)CCO2` (centres unmarked) [A(181), 6-Cyclopentyl-6-[2-(5-ethyl-4-hydroxy-2,3-dihydro-benzofuran-7-yl)-ethyl]-dihydro-pyran-2,4-dione], the IC50 is 600 nM.

On to `O=C1CC(=O)OC(CCc2ccc3ccccc3c2)(C2CCCC2)C1` (centres unmarked) [A(47), 6-Cyclopentyl-6-(2-naphthalen-2-yl-ethyl)-dihydro-pyran-2,4-dione], for which the IC50 came to 7000 nM.

For `Cc1cc(C)n2nc(CC3=C(O)CC(CCc4ccc(F)c(Cl)c4)(C4CCCC4)OC3=O)nc2n1` (centres unmarked) [B(19), 6-[2-(3-Chloro-4-fluoro-phenyl)-ethyl]-6-cyclopentyl-3-(5,7-dimethyl-[1,2,4]triazolo[1,5]pyrimidin-2-ylmethyl)-4-hydroxy-5,6-dihydro-pyran-2-one], the IC50 was determined as 60 nM.

On to `CC(C)Oc1ccc(CCC2(C3CCCC3)CC(=O)CC(=O)O2)cc1F` (single isomer, unassigned) [J(2), 6-cyclopentyl-6-[2-(3-fluoro-4-isopropoxyphenyl)ethyl]dihydro-2H-pyran-2,4(3H)-dione], for which the IC50 is 3900 nM.

With `CC(C)Oc1ccc(CCC2(C3CCCC3)CC(O)=C(Sc3nnc(-c4ccccc4)[nH]3)C(=O)O2)cc1F` (centres unmarked) [C(24), 6-Cyclopentyl-6-[2-(3-fluoro-4-isopropoxy-phenyl)-ethyl]-4-hydroxy-3-(5-phenyl-4H-[1,2,4]triazol-3-ylsulfanyl)-5,6-dihydro-pyran-2-one], the 50% inhibitory concentration (IC50) is 51 nM.

Consider `CCCc1cc(CCC2(C3CCCC3)CC(O)=C(Cc3nc4nc(C)cc(C)n4n3)C(=O)O2)ccc1O` (centres unmarked) [A(136), 6-cyclopentyl-3-[(5,7-dimethyl[1,2,4]triazolo[1,5-a]pyrimidin-2-yl)methyl]-4-hydroxy-6-[2-(4-hydroxy-3-propylphenyl)ethyl]-5,6-dihydro-2H-pyran-2-one], for which the IC50 was 2 nM.

In the case of `O=C1CC(=O)OC(CCc2ccc(O)c(F)c2)(C2CCCC2)C1` (centres unmarked) [A(129), 6-Cyclopentyl-6-[2-(3-fluoro-4-hydroxy-phenyl)-ethyl]-dihydro-pyran-2,4-dione], the concentration for half-maximal inhibition (IC50) is 8900 nM.

`Cc1cc(C)n2nc(CC3=C(O)CC(CCc4ccc(C5(C#N)CC5)c(Cl)c4)(C4CCCC4)OC3=O)nc2n1` (centres unmarked) [A(148), 1-(2-Chloro-4-{2-[2-cyclopentyl-5-(5,7-dimethyl-[1,2,4]triazolo[1,5-a]pyrimidin-2-ylmethyl)-4-hydroxy-6-oxo-3,6-dihydro-2H-pyran-2-yl]-ethyl}-phenyl)-cyclopropanecarbonitrile]: the 50% inhibitory concentration (IC50) came out at 5 nM.

With `Cc1cc(C)n2nc(CC3=C(O)CC(CCc4ccc(O)c(Cl)c4)(C4CCCC4)OC3=O)nc2n1` (centres unmarked) [B(95), 6-[2-(3-Chloro-4-hydroxy-phenyl)-ethyl]-6-cyclopentyl-3-(5,7-dimethyl-[1,2,4]triazolo[1,5-a]pyrimidin-2-ylmethyl)-4-hydroxy-5,6-dihydro-pyran-2-one], the 50% inhibitory concentration (IC50) is 13 nM.

In the case of `O=C1CC(=O)OC(CCc2ccc(O)c(CO)c2)(C2CCCC2)C1` (centres unmarked) [A(195), 6-Cyclopentyl-6-[2-(4-hydroxy-3-hydroxymethyl-phenyl)-ethyl]-dihydro-pyran-2,4-dione], the half-inhibitory concentration (IC50) stood at 11000 nM.

The record behind these values is patent publication US7473790B2 (Pfizer Inc., priority 2003, dated 2009).
